Laboratory results: article PMC11481179, “Development and Application of Reversible and Irreversible Covalent Probes for Human and Mouse Cathepsin‐K Activity Detection, Revealing Nuclear Activity” (Advanced Science, 2024)

Tests used:
[1] = system: primary human osteoclasts (enriched monocytic cells); assay: Cell viability assay (methylene blue); assay type: cell-based; conditions: 48 h incubation
Method: Figure 5 Labeling of endogenous cathepsin K in intact human osteoclast cells. Enriched human monocytes from PBMC were isolated from healthy donors’ blood, cells were treated with MCSF and RANKL or MCSF alone as indicated for 14 days. a–c) Osteoclasts were treated with vehicle (DMSO) or inhibitors ODN or GD30 [3 µM] in a culture medium for 2 h, followed by incubation with GD32 or GD42 for 8 h or GB123 for 2 h similar to as described in Figure 4. (a, b) Confocal fluorescent microscopy of GD32 and GB123 treated cells after fixation. c) Live cell imaging with GD42. d) SDS PAGE of the human osteoclasts and macrophages incubated with DMSO, ODN or GD30 [5 µM] followed by incubation with GD32 or GD42 [5 µM] for 8 h. e) The same gel was analyzed by western blot with an anti‐CTSK antibody. […] Red fluorescence marks cathepsin activity (ABPs) and blue fluorescence marks nucleus (DAPI). g–i) Cell viability assay. […] After 48 h incubation cells were fixed, and viability was measured by methylene blue. The data were expressed as a percentage of control; data represent the mean of two experiments with triplicates for each treatment (± Standard Deviation). […]
with 5µM GD32 for 24 h prior to the cell lysis. Cell lysates were prepared and analyzed as […]
analyzed as previously described. […]
After 48 h cells were fixed, and viability was measured by quantitative colorimetric assay using […]

[2] = target: CTSL (Homo sapiens, UniProt P07711); assay: In vitro kinetic evaluation of cathepsin inhibition, fluorescent substrate Z-RR-AMC; assay type: biochemical; conditions: for mode of inhibition: CTSL; for Ki: CTSL 5 nM, pH 6, 37 °C
Method: used for TLC. Phosphate Buffer Saline (PBS) was purchased from Biological Industries (pH = […]
7.4) and was used as a buffer system in all experiments if not indicated otherwise. […]
Recombinant human CTSB, CTSK, CTSL, and CTSS were supplied by B. Turk (J.
Stefan Institute).[1] […]
In vitro kinetic evaluation of labeling recombinant cathepsins:
Reactions were monitored for 30 min at 37° C in 96-well black flat-bottom microplates […]
(Greiner, Germany) using Tecan INFINITE M1000 pro plate reader (Tecan, Switzerland), […]
substrates Z-RR-AMC (CTSL) or Z-FR-AMC (CTSS, CTSB and CTSK), and excitation and […]
emission wavelengths of 370 and 460 nm, respectively. Cathepsin concentrations in the assay were 0.4 nM (CTSK) or 5 nM (CTSS, CTSB, and CTSL). The buffer was 100 mM Na2HPO4/NaH2PO4, 50 mM NaCl, 5 mM DTT, 0,1% Peg-6000, pH 6. For irreversible inhibitors, reaction data were fitted to the one-phase association formula in GraphPad Prism 9 software: Y=Y0 + (Plateau-Y0)*(1-exp(-K*X)) where in this case Y0 and Y represent fluorescence signal at times 0 and t, respectively, K represent the observed reaction rate kobs and X the inhibitor concentration. Inactivation rates at each inhibitor concentration were obtained by subtracting the inactivation observed in the control sample: kobs – kctrl. The maximal rate of inactivation (kinact) was obtained as the asymptote from equation Y = kinact*X/(Kiapp + X) where X is inhibitor concentration, Y is the observed inactivation rate for each X, and Kiapp is the apparent inhibition constant. Ki values were calculated from IC50 or from Kiapp using formulas Ki = Kiapp / (1 + Km/S) and IC50 = E0/2 + Kiapp, where Km stands for Michalis-Menten constant, S for substrate concentration and E0 for cathepsin concentration.
The highest inhibitor concentrations in the assay were 50 µM. Measurements were performed in several independent duplicates. Average values are presented with standard deviations. […]
µM) were pretreated with different concentrations of probes (GD32, GD36, GD37, or GD42)

CTSL, sequence (P07711 114-333): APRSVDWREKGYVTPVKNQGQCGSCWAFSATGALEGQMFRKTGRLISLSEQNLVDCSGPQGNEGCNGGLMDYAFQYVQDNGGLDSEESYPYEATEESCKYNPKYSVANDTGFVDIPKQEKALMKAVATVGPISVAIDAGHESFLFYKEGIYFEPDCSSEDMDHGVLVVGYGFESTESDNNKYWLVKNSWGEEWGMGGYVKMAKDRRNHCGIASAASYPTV

Compound: C#CCNC(=O)[C@H](CC(C)C)N[C@@H](c1ccc(-c2ccc(S(=O)(=O)CCNC(=O)OC(C)(C)C)cc2)cc1)C(F)(F)F [GD30]
- cytotoxicity [1]: No toxicity

Compound: C#CCNC(=O)[C@H](CC(C)C)N[C@@H](c1ccc(-c2ccc(S(=O)(=O)CCNC(=O)CCCCC[N+]3=C(/C=C/C=C/C=C4/N(C)c5ccc(S(=O)(=O)O)cc5C4(C)C)C(C)(C)c4cc(S(=O)(=O)O)ccc43)cc2)cc1)C(F)(F)F [GD32]
- mode of inhibition [2]: Reversible
- Ki [2]: 20 µM
- cytotoxicity [1]: No toxicity

Compound: CC(C)C[C@H](N[C@@H](c1ccc(-c2ccc(S(=O)(=O)CCNC(=O)CCCCC[N+]3=C(/C=C/C=C/C=C4/N(C)c5ccc(S(=O)(=O)O)cc5C4(C)C)C(C)(C)c4cc(S(=O)(=O)O)ccc43)cc2)cc1)C(F)(F)F)C(=O)NC1(C#N)CC1 [GD37]
- mode of inhibition [2]: Reversible
- Ki [2]: 1.2 µM
